Experimental data from patent publication US9783551B2, “Pyranochromenyl phenol derivative, and pharmaceutical composition for treating metabolic syndrome or inflammatory disease” (GLACEUM, INC., priority 2013, dated 2017).

Columns and labels:
[1] = target: PTP1B (Homo sapiens (Human), UniProt P18031); assay: Experiment of PTP1B inhibition (p-NPP dephosphorylation); assay type: biochemical; details: 2 mM p-NPP substrate, 30° C., 30 minutes
Source text: With respect to PTP1B, the degrees of inhibition (IC50 The half maximal inhibitory concentration) of glabridin, and compounds of Preparation Example 2 (Compound 1), Example 2 (Compound 3), Example 3 (Compound 4), Example 4 (Compound 5), Example 13 (Compound 14), Example 14 (Compound 15), Example 15 (Compound 16), Example 17 (Compound 18), Example 18 (Compound 19) and Example 20 (Compound 21) were compared to each other. For this purpose, the degree of inhibition activity for PTP1B was investigated by using 2 mM p-nitrophenyl phosphate (p-NPP) as a substrate to measure the dephosphorylation degree. First, PTP1B diluted with distilled water was reacted with 2 mM p-nitrophenyl phosphate {p-NPP, 0.1 M NaCl, 1 mM EDTA, 50 mM citrate pH 6.0, and 1 mM dithiothreitol (DTT)} and Compound 1 at various concentrations at 30° C. for 30 minutes, and then the reaction was terminated with a 1 N-sodium hydroxide (NaOH) solution. The absorbance of the samples thus prepared was measured to confirm the inhibition degree (IC50: The half maximal inhibitory concentration) for PTP1B activity according to the concentration of Compound 1. Even for glabridin, Compound 3, Compound 4, Compound 5, Compound 14, Compound 15, Compound 16, Compound 18, Compound 19, and Compound 21, the same measurement was performed.

[2] = system: DIO mice; assay: Anti-obesity effect for DIO mice (body weight); assay type: in vivo, C57BL/6 mice; details: Mus musculus, 672 h; 4 weeks, 150 mg/kg, oral gavage once daily
Procedure: Five-week-old female C57BL/6 mice (Narabio Co., Ltd.) were purchased and fed with only high-fat diet for at least 10 weeks to produce diet induced obesity ([…]) mice. Samples were exactly taken from Preparation Example 1 (glabridin) and the compounds of Examples of the present invention (Compounds 1 to 5, 7, 9, 11, 14 to 16, 21, and 23) according to the administration dose and put into Falcon tubes, 3 ml of a 0.5% methyl cellulose aqueous solution was added thereto and a vortex mixer was used to primarily mix the ingredients in a soft manner, and then a homogenizer (30,000 rpm, Ultra-Turrax® T10 Basic, IKA) was used to treat the sample for 3 minutes while 1.5 ml of a 0.5% methyl cellulose aqueous solution was added thereto. The sample thus prepared was administered through oral gavage using a disposable plastic syringe once daily for 28 days (4 weeks). The body weight was measured twice a week while the DIO mice were bred in this manner. Based on the data thus calculated, the anti-obesity effect (%) was calculated according to the equation defined as follows. Anti-Obesity Effect={(Body weight of control group)−(Body weight of experimental group)}/(Body weight of control group)×100

[3] = system: db/db mice; assay: Anti-diabetic effects for db/db mice (glycosylated hemoglobin); assay type: in vivo, C57BLKS/J-db/db mice
Procedure: (§1) 5-week-old male C57BLKS/J-db/db mice (Central Lab. Animal Inc.) were purchased and acclimatized for 2 weeks, and then used in this experiment. Samples were exactly taken from the compounds prepared in Examples 4 and 15 of the present invention (Compounds 5 and 16) according to the administration dose and put into Falcon tubes, a 0.5% methyl cellulose aqueous solution stored refrigerated was placed at room temperature to allow the excipients to be warmed at room temperature, 16 ml of each of the excipients was added to a 50 ml Falcon tube, and a vortex mixer was used to primarily mix the ingredients in a soft manner, and then a suspension was obtained and homogenized by treating the sample for 3 minutes using a homogenizer (30,000 rpm, CPT-1600E, Kinemtica, Switzerland), and then ultrasonically treated for 30 minutes. The sample thus prepared was administered through oral gavage using a disposable plastic syringe equipped with a sonde once daily for 42 days (6 weeks).
The glycosylated hemoglobin (HbA1c) was measured while the db/db mice were bred. The gyclosylated hemoglobin was measured at 2 days prior to group separation, 4 weeks after administration, and 6 weeks after administration, and was measured by fasting the mice for 4 hours on the measurement date, collecting blood from the caudal vein before each material was administered, and using a device for measuring glycosylated hemoglobin (SD A1cCare, SD Biosensor, Inc., Korea).

[4] = system: db/db mice; assay: Liver histology (H&E, perilipin antibody) of db/db mice after 6 weeks; assay type: in vivo, C57BLKS/J-db/db mice; details: administered for 6 weeks, compared with control group
Procedure: as §1
The mouse to which Compound 16 had been administered for 6 weeks in this experiment was finally sacrificed and autopsied to collect a liver, the liver was excised and each stained with hematoxylin and eosin (H&E) and perilipin antibody, the stained tissue was observed using a microscope, and the results are shown in FIGS. 2 to 5. […]

[5] = system: BV2 microglia cells; assay: BV2 cell NO assay (LPS-induced NO production, Griess reagent); assay type: cell-based; details: Mus musculus, BV-2, LPS 1 μg/ml, 24 hours
Procedure: (§2) After the pretreatment, 0.5 mg/ml of the MTT (Sigma, M2128) reagent was further added thereto. After the cells were cultured in a 5% CO2 incubator, the supernatant was discarded, 150 μl of DMSO was added and was shaken for 30 minutes, and an ELISA micro plate reader (Bio Rad Laboratories Inc., California, USA, Model 680) was used to measure the absorbance at a wavelength of 540 nm. All the experimental values were calculated as an average value of three repeated experimental values of the cell protection rate for the control group, and an experiment of suppressing the NO production for each compound was carried out at a concentration in which no cytotoxicity was shown.
(§3) After the reaction, an ELISA micro plate reader (Bio Rad Laboratories Inc., California, USA, Model 680) was used to measure the absorbance at a wavelength of 540 nm. The suppression rate was calculated as a difference in amount of NO produced between the control group and the experimental group, and as shown in the following Table 6 and FIG. 6, Compounds 4, 5, 15, 16, 18, and the like of the present invention were excellent in the effect of suppressing the production of NO, and the effect is also about 5 times to about 9 times better than that of glabridin.

[6] = system: RAW264.7 macrophages; assay: RAW264.7 macrophage NO assay (LPS-induced NO production, Griess reagent); assay type: cell-based
Procedure: as §2, with “pretreatment,” for “pretreatment, 0.5 mg/ml of”, “reagent at a concentration of 0.5 mg/ml” for “reagent”, “incubator for 4 hours,” for “incubator,”
as §3, with “7,” for “6 and FIG. 6,”, “NO.” for “NO, and the effect is also about 5 times to about 9 times better than that of glabridin.”

PTP1B, sequence (P18031 whole entry, species assumed): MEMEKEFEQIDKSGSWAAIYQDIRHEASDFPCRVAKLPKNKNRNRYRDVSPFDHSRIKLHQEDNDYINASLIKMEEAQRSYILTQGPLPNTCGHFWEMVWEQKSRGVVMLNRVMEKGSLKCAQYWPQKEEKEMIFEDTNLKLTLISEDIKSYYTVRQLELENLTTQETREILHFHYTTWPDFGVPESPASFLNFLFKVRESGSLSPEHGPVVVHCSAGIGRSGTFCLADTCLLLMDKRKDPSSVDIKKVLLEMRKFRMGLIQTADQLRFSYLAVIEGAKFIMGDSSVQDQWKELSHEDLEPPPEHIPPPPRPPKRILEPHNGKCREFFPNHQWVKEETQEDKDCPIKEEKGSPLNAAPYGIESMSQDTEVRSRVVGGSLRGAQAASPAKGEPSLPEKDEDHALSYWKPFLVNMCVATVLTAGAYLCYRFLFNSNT

## CCCOc1ccc(C2COc3c(ccc4c3CCC(C)(C)O4)C2)c(O)c1 (stereo not drawn) [Compound 16, 3-(2-hydroxy-4-propoxyphenyl)-8,8-dimethyl-2,3,4,8,9,10-hexahydropyrano [2,3-f] chromene]
[1]
  IC50: 1900 nM
[2]
  inhibition in vivo at 150 mg/kg: 7%
[3]; 4 weeks after administration, 300 mg/kg oral once daily
  HbA1c (%) 4 weeks: 6.7%
[3]; 6 weeks after administration, 300 mg/kg oral once daily
  HbA1c (%) 6 weeks: 6.2%
[3]; before administration, 300 mg/kg group
  HbA1c (%) Before administration: 4.7%
[4]
  liver tissue observation by microscope: small and compact adipocytes
[5]
  IC50: 2300 nM
[6]; Mus musculus, RAW264.7, NO production, LPS 1 μg/ml, 24 hours
  IC50: 4400 nM
[6]; RAW264.7 macrophages, in words
  effect of suppressing the production of NO: excellent
